Literature values as cited in patent US8840883B2, “Metallo-protein and tocotrienol (MP-T3) compositions with non-protein-type metal chelator and uses thereof” (Naidu LP, priority 2007, dated 2014).

Settings: as low as 2% oxygen

| Structure (SMILES) | degradation [%] |
| --- | --- |
| CC(C)=CCC/C(C)=C/CC/C(C)=C/CC[C@]1(C)CCc2cc(O)c(C)c(C)c2O1 [gamma-T3] | 29 |
| Cc1c(O)cc2c(c1C)O[C@](C)(CCC[C@H](C)CCC[C@H](C)CCCC(C)C)CC2 [gamma-tocopherol] | 20 |
